Measured values from PubChem BioAssay (NCI).
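Test compounds were applied to cells in 96-well plates for 48 hours at 5 doses. TGI: total growth inhibition.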 *1 amine or outer side, *2 acyl side, *3 side chain or, on linkers, in order; H or OH if unused. Where a SMILES comes first, the peptide text is derived from it. Bridges are numbered along the chain shown (N, C = ends). Roman numbers before positions name the chains, in order. [ ]: non-standard residue; d: D form. Actinocin(9to1) = Cc1c2oc3c(C)ccc(C(=O)[*:1])c3nc-2c(C(=O)[*:2])c(N)c1=O; Hyp = O=C(O)[CH]1C[CH](O)CN1; NMeV = CN[CH](C(=O)O)C(C)C; Sar = CNCC(=O)O

Tests used:
Experiment in all cases: NCI anticancer screen, dose series, 48 h
[1] = system: SF-295 CNS
[2] = system: A498 renal
[3] = system: ACHN renal
[4] = system: OVCAR-8 ovarian
[5] = system: HOP-92 NSCLC
[6] = system: NCI-H522 lung
[7] = system: K-562 leukemia
[8] = system: CAKI-1 renal
[9] = system: MCF7 breast
[10] = system: OVCAR-3 ovarian

Measured: TGI

c1ccc(Nc2nn3c(CCCCCCCCc4nnc5sc(Nc6ccccc6)nn45)nnc3s2)cc1
37.6 µM: [7]
71.8 µM: [1]
81.2 µM: [6]
85.7 µM: [9]
> 100 µM: all other assays above

CC(=O)O[C@H]1C(=O)[C@@]2(C)[C@H]([C@H](OC(=O)c3ccccc3)[C@]3(O)C[C@H](OC(=O)[C@H](O)[C@@H](NC(=O)c4ccccc4)c4cccc(N(C)C)c4)C(C)=C1C3(C)C)[C@]1(OC(C)=O)CO[C@@H]1C[C@@H]2O
> 27.4 µM: [4]
0.586 µM: [10]
> 55.2 µM: [9]
> 16.4 µM: [3]
9.02 µM: [2]
1.14 µM: [1]
3.69 µM: [6]
> 75 µM: all other assays above

O=C(OC1CN2CCC1CC2)N(c1ccccc1)c1ccccc1 (stereo not given)
78.5 µM: [2]
> 100 µM: all other assays above

CN(C)CCOc1ccc(-c2c(Oc3ccccc3)c(=O)oc3ccccc23)cc1
29.6 µM: [4]
32.7 µM: [5]
24.1 µM: [6]
24.4 µM: [3]
48.7 µM: [8]
17.2 µM: [1]
17.5 µM: [9]
23 µM: [7]
27 µM: [2]
26 µM: [10]

O[C@@H]1CCC[C@@H]2NC[C@@H](c3ccc4c(c3)OCO4)[C@H]12
> 100 µM: all assays above

CO/N=C(\C([O-])=N\[n+]1cnn(CC(=O)OC(C)(C)C)c1)c1csc(NC(c2ccccc2)(c2ccccc2)c2ccccc2)n1
> 10 µM: all assays above

CCC(CC)(CO)CNc1cc(Cl)nc(N)n1
> 100 µM: all assays above

CCCCCCCCP(=O)(O)OP(=O)(O)OCC1OC(n2ccc(N)nc2=O)C(O)C1O (stereo not given)
> 100 µM: all assays above

Cc1c2oc3c(C)ccc(C(=O)NC4C(=O)NC(C(C)C)C(=O)N5CC(O)CC5C(=O)N(C)CC(=O)N(C)C(C(C)C)C(=O)OC4C)c3nc-2c(C(=O)NC2C(=O)NC(C(C)C)C(=O)N3CC(O)CC3C(=O)N(C)CC(=O)N(C)C(C(C)C)C(=O)OC2C)c(N)c1=O (stereo not given) (I: TV[Hyp][Sar][NMeV] / II: TV[Hyp][Sar][NMeV]; ester I:1-I:C, II:1-II:C; linker I:N-II:N via Actinocin(9to1); configuration not given here)
> 1 µM: all assays above
